Measurements reported in patent publication US20030232340A1 (priority 2002, published 2003).

Target: T1, Concanavalin A (Canavalia ensiformis, UniProt P02866)
T1 construct: purchased Sigma C-5275
Experiment: Homogeneous cubic phase dispersion assay: displacement of biotinylated mannotriose-avidin/HRP, Dextran Blue detection
Format: binding
Conditions: 500 microliters of saturated solution added to 3.0 ml
Description: Experimental Results—A cubic phase was first prepared by mixing 0.752 grams of Pluronic P123 (an insoluble surfactant), 0.705 grams of linalool, and 0.703 grams of water. An amount of 1.005 grams of this cubic phase was put in a glass flask together with 0.054 grams of the rhamnolipid surfactant JBR-99 (Jeneil Biosurfactant, Inc.) and 35 ml of pH 4.5 acetate buffer containing 4 mM MnCl2 and 4 mM CaCl2. The flask was then sonicated to disperse the cubic phase. Following this, the dispersion was microfluidized in a model 110S Microfluidizer (Microfluidics, Inc.) to a particle size that was fine enough where the absorbance measured on an Ultrospec 3000 UV-Vis spectrometer, at a wavelength of 620 nm, was about 0.2 absorbance units.
The following reagents were then added to 2 ml of the cubic phase dispersion: […]
After the addition of the Dextran Blue-based Detection System, absorbance readings at 620 nm were monitored continuously. After the readings stabilized at 0.40 absorbance units, 500 microliters of Displacement Solution were added. […]
Upon addition of this alpha methylmannoside—the analyte—the absorbance dropped from 0.40 to 0.26 absorbance units. […] The majority of the decrease in absorbance was due to the enzymatic action of displaced HRP on the Dextran Blue.

COC1O[C@H](CO)[C@@H](O)[C@H](O)[C@@H]1O (stereo partly drawn) [alpha methylmannoside]
decrease in absorbance at 620 nm (14% expected from dilution alone): 35% | absorbance at 620 nm after addition of analyte (reading before addition 0.40): 0.26 absorbance units
